How the values were obtained:
E. faecium = experiment: DiBAC4 membrane depolarization on E. faecium; format: cell-based, Enterococcus faecium; conditions: deoxycholate as positive control
A. baumannii = experiment: DiBAC4 membrane depolarization on A. baumannii; format: cell-based, Acinetobacter baumannii; conditions: polymyxin as positive control
bacterial membrane = conditions: bacterium not stated; ref [6b],[13],[15]; cited from earlier work

Q: For `C[C@H](CCC(=O)O)[C@H]1CC[C@H]2[C@@H]3CC[C@@H]4C[C@H](O)CC[C@]4(C)[C@H]3C[C@H](O)[C@]12C` [sodium deoxycholate], which “Membrane depolarization (DiBAC4 fluorescence change)” value (E. faecium) is on record?
A: rapidly enhanced DiBAC4 fluorescence

Q: For polymyxin, which “Membrane depolarization (DiBAC4 fluorescence change)” value (A. baumannii) is on record?
A: rapidly enhanced DiBAC4 fluorescence

Q: With tridecaptin as the compound, how does the “Membrane depolarization in DiBAC4 assay” value (bacterial membrane) read?
A: does not depolarize the membrane

Source: paper PMC7163397 (Journal of the American Chemical Society, 2017)
